Like-named read-outs stand apart in the source and are kept apart here.
Key:
[1] = system: Podosphaera xanthii (powdery mildew); assay: in vitro leaf disc assay on cucumber cotyledons; assay type: cell-based
Botrytis cinerea = assay: in vitro mycelial disc assay; assay type: cell-based
Fusarium graminearum = assay type: cell-based
cucumber = conditions: in vivo
Method: (§1) These experiments were carried out to test the phytotoxic effects of HMTBA on cucurbit (cucumber), strawberry, pepper, and lettuce target crops. Young plants of Jackson Classic variety cucumber, Tango variety head lettuce, Compadre variety bell pepper, and Festival variety strawberry were grown under standard greenhouse conditions. One week-post planting cucumber and pepper plants, three week old lettuce, and four month old strawberry plants were treated.
(§2) Foliar sprays for HMTBA dilutions at 0.01, 0.1, 0.2 and 1.0% ai/v were applied twice per week for two weeks (total of four applications).
(§3) Height and width for each plant was measured (centimeters) for indication of growth changes between treated and untreated plants. Phytotoxicity ratings were taken weekly on a 0-10 scale, where 0 indicates no crop injury and 10 is damage (yellowing, scarring, wilting, necrosis, death) to the total plant from the treatment.
(§4) Area Under Disease Progress Curve (AUDPC), Abbot's formulation for percent control and all statistics were analyzed using ANOVA mean comparison with LSD test and a=0.05. Bartlett's test for homogeneity of variances was used to determine the need for data transformations. Letters in tables represent means separation significant and 0.05.

lettuce = conditions: in vivo
Method: as §1, §2, §3, §4

pepper = conditions: in vivo
Method: as §1, §2, §3, §4

strawberry = conditions: in vivo
Method: as §1, §2, §3, §4

CO/C=C(/C(=O)OC)c1ccccc1Oc1cc(Oc2ccccc2C#N)ncn1 [Azoxystrobin, azoxystrobin]
P. xanthii % Control ([1]; Azoxystrobin 0.00001% ai/v): 17.66% de
Pest Severity Score 0-4 ([1]; Azoxystrobin 0.00001% ai/v): 2.67 ab
P. xanthii % Control ([1]; Azoxystrobin 0.0001% ai/v): 44.23% c
Pest Severity Score 0-4 ([1]; Azoxystrobin 0.0001% ai/v): 1.75 c
P. xanthii % Control ([1]; Azoxystrobin 0.1% ai/v): 97.62% a
Pest Severity Score 0-4 ([1]; Azoxystrobin 0.1% ai/v): 0.08 e

O=C1C2CC=CCC2C(=O)N1SC(Cl)(Cl)Cl (stereo not shown) [Captan, captan]
B. cinerea Mycelial Growth % Control (Botrytis cinerea; Captan 0.001% ai/v): 21.05% cd
B. cinerea Mycelial Growth Diameter (cm) (Botrytis cinerea; Captan 0.001% ai/v): 1.68 bc cm
B. cinerea Mycelial Growth % Control (Botrytis cinerea; Captan 0.01% ai/v): 53.68% b
B. cinerea Mycelial Growth Diameter (cm) (Botrytis cinerea; Captan 0.01% ai/v): 0.97 cm·days
B. cinerea Mycelial Growth % Control (Botrytis cinerea; Captan 1% ai/v): 96.81% a
B. cinerea Mycelial Growth Diameter (cm) (Botrytis cinerea; Captan 1% ai/v): 0.07 e cm

CSCCC(O)C(=O)O (stereo not shown) [HMTBA, 2-hydroxy-4(methylthio)butanoic acid]
P. xanthii % Control ([1]; 0.1% HMTBA): 4.46% ef
Pest Severity Score 0-4 ([1]; 0.1% HMTBA): 3.17 a
B. cinerea Mycelial Growth % Control (Botrytis cinerea; 0.1% HMTBA): 10.08% de
B. cinerea Mycelial Growth Diameter (cm) (Botrytis cinerea; 0.1% HMTBA): 2.03 ab cm
F. graminiearum % Control (Fusarium graminearum; 0.1% HMTBA): 4.93% ef
Spore Diameter (cm) (Fusarium graminearum; 0.1% HMTBA): 1.47 a cm
phytotoxic effects (cucumber): no phytotoxic effects were recorded
plant growth (height and width) (cucumber): unchanged from the untreated check
phytotoxic effects (lettuce): no phytotoxic effects were recorded
plant growth (height and width) (lettuce): unchanged from the untreated check
Pepper Phytotoxicity Rating (0-10) (pepper; Compadre variety, pepper): 0.0 a
phytotoxic effects (pepper): no phytotoxic effects were recorded
plant growth (height and width) (pepper): unchanged from the untreated check
Strawberry Phytotoxicity Rating (0-10) (strawberry; Festival variety, strawberry): 0.0 a
phytotoxic effects (strawberry): no phytotoxic effects were recorded
plant growth (height and width) (strawberry): unchanged from the untreated check

CC1(C)CCC(Cc2ccc(Cl)cc2)C1(O)Cn1cncn1 (stereo not shown) [Metconazole, metconazole]
F. graminiearum % Control (Fusarium graminearum; Metconazole 0.001% ai/v): 27.80% cde
Spore Diameter (cm) (Fusarium graminearum; Metconazole 0.001% ai/v): 1.00 b cm
F. graminiearum % Control (Fusarium graminearum; Metconazole 0.01% ai/v): 66.98% ab
Spore Diameter (cm) (Fusarium graminearum; Metconazole 0.01% ai/v): 0.50 cd cm
F. graminiearum % Control (Fusarium graminearum; Metconazole 1% ai/v): 93.08% a
Spore Diameter (cm) (Fusarium graminearum; Metconazole 1% ai/v): 0.17 cm·days
